Measured values as given in patent US9586916B2, “Integrin antagonist conjugates for targeted delivery to cells expressing alpha-V-beta-3” (Hoffmann-La Roche Inc., priority 2012, dated 2017).

Molecular target: T1, αVβ3 (Homo sapiens, UniProt P05106+P06756)
T1 construct: purchased R & D 3050-AV
Test: Human αVβ3 solid phase assay (fibrinogen binding to coated αVβ3)
Conditions: αVβ3 coated plates, fibrinogen as ligand
Protocol: The following assay was conducted to assess αVβ3 binding affinity of the αVβ3-targeted compounds of this invention.
Human αVβ3 solid phase assay:
Immuno 96-well Plates (NUNC, Part#439454) were coated with αVβ3 (R & D, Cat#3050-AV) by adding 100 uL of αVβ3 (lx) to each well and incubating the plates overnight at […]. Buffer used was Buffer A: 20 mM Tris, 150 mM NaCl, 1 mM CaCl2, 1 mM MgCl2, pH7.4. After removal of the coating reagent, 150 uL of 3.5% BSA in Buffer A was added to each well to block the plates for 105 minutes at […]. After blocking, plates were washed 5 times with 200 uL of Buffer B (Buffer A+1 mM MnC12). 50 uL of test compound solution (2×) in 5% DMSO and 50 uL of fibrinogen (2×) (Innovative Research, Cat# IFIB) were then added to each well. Plates were shaken for 2 minutes, and then incubated for 2 hours for 370 C. After the plates were washed 5 times with 200 uL of Buffer B, the 1st antibody rabbit anti-human fibrinogen (Innovative Research, Cat IASHFBGN-GF) in the amount of 100 uL/well, and the 2nd antibody Goat anti-rabbit IgG Horse-radish peroxidase conjugate (Invitrogen, Cat#G21234) in the amount of 50 uL/well were added to plates, respectively. […] After being added 100 uL/well Stop Buffer (1.0 M Phosphoric Acid […]), plates were read on Envision at Absorbance mode 450 nm.

T1 sequence (P06756 31-992 limits assumed): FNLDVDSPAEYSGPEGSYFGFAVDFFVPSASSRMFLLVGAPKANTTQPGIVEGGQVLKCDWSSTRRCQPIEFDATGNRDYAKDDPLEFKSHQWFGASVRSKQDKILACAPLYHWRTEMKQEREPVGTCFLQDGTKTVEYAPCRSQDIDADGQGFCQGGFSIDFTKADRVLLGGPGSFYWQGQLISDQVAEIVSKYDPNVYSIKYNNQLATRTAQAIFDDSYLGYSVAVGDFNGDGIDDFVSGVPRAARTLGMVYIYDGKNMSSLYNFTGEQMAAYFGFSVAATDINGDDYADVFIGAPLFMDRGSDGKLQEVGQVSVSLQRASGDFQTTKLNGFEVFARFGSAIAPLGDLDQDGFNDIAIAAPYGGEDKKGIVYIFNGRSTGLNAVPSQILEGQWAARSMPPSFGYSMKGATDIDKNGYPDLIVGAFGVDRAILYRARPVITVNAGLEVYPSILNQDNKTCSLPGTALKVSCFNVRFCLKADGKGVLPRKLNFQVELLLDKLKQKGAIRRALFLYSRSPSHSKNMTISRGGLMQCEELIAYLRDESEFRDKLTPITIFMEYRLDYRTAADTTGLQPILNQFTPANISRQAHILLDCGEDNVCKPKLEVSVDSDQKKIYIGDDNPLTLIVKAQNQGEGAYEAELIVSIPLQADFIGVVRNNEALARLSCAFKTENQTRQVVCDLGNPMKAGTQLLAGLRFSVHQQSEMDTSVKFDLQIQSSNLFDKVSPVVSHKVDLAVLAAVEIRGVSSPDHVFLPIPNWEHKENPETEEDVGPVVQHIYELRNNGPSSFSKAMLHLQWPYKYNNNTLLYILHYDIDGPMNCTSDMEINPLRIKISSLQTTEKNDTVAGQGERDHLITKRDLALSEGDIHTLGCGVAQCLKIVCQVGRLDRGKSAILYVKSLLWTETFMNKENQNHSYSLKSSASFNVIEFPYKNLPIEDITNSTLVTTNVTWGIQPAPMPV
T1 sequence (P05106 27-718 limits assumed): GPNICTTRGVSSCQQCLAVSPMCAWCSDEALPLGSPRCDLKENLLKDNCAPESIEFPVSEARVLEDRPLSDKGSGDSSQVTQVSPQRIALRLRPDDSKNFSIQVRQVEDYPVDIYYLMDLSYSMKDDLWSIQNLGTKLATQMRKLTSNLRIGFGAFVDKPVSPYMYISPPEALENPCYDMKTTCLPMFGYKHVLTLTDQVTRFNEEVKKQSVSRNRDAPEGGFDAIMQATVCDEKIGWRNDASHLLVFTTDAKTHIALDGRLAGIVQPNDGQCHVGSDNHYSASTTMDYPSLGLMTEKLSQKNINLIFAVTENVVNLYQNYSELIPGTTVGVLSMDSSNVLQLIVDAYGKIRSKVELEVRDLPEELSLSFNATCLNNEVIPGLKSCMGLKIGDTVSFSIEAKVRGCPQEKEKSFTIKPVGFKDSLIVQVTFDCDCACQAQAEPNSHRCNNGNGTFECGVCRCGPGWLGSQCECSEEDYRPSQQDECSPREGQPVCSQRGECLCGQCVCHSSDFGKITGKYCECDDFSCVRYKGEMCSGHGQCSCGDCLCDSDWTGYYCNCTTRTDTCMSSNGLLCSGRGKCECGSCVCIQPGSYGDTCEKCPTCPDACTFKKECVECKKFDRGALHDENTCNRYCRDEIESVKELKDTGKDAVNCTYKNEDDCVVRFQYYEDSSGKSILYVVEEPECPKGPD

COc1ccc(NC(=O)[C@H](CC(=O)O)NC(=O)CNC(=O)c2cccc(N=C(N)N)c2)cc1 [compound 141]
IC50: ~2 nM
